Literature values as cited in patent publication US20060177392A1, “Oil-based composition for acne” (priority 2005, published 2006).

Columns and labels:
[1] = typical dose 0.5 to 2 mg/kg body weight per 24 hours; human fetal abnormalities and spontaneous abortions
[2] = taken internally

Row | Compound | Teratogenicity [1] | Single megadose that can induce brain swelling, headache, drowsiness, vomiting, and/or death ([2]; single megadose) | Sustained dose that may be toxic ([2]; sustained doses)
1 | CC1=C(/C=C/C(C)=C/C=C/C(C)=C\C(=O)O)C(C)(C)CCC1 [Accutane, 13-cis-retinoic acid] | often teratogenic | – | –
2 | Vitamin A | – | 1,500,000 IU | over 50,000 IU
